Assay results published in the NIST ThermoML archive (doi:10.1016/j.jct.2004.05.008).

What was measured:
[1] = Crystal
[2] = molar heat capacity at constant pressure; conditions: 101.33 kPa
[3] = Molar enthalpy of transition or fusion; conditions: Crystal

O=C1OC(=O)C2=C1CCCC2 [3,4,5,6-tetrahydrophthalic anhydride]
Conditions	Molar enthalpy of transition or fusion [kJ/mol]	Triple point temperature [K]
[1]	–	343.46
[3]	11.88	–

[2]
Conditions	molar heat capacity at constant pressure [J/K/mol]
80.34 K, Crystal	56.23
83.47 K, Crystal	56.18
86.53 K, Crystal	56.31
89.58 K, Crystal	56.4
92.48 K, Crystal	56.87
95.3 K, Crystal	57.18
98.08 K, Crystal	57.46
100.82 K, Crystal	57.84
103.56 K, Crystal	57.96
106.09 K, Crystal	58.31
108.63 K, Crystal	58.53
111.12 K, Crystal	58.74
113.61 K, Crystal	59.12
116.02 K, Crystal	59.31
118.43 K, Crystal	59.66
120.75 K, Crystal	60.05
123.08 K, Crystal	60.42
125.35 K, Crystal	60.99
127.64 K, Crystal	61.14
129.84 K, Crystal	61.87
132.12 K, Crystal	62.27
134.33 K, Crystal	62.87
136.53 K, Crystal	63.57
138.65 K, Crystal	64.15
140.81 K, Crystal	64.74
142.92 K, Crystal	65.78
145.08 K, Crystal	66.49
147.12 K, Crystal	67.22
149.15 K, Crystal	68.03
151.27 K, Crystal	69
153.3 K, Crystal	69.87
155.3 K, Crystal	70.76
157.37 K, Crystal	71.32
159.37 K, Crystal	72.03
161.36 K, Crystal	72.91
163.27 K, Crystal	73.95
165.22 K, Crystal	74.97
167.13 K, Crystal	76.01
169.12 K, Crystal	76.73
171.05 K, Crystal	77.91
172.94 K, Crystal	78.5
174.85 K, Crystal	79.78
176.72 K, Crystal	80.51
178.63 K, Crystal	81.53
180.46 K, Crystal	82.71
182.28 K, Crystal	83.6
184.11 K, Crystal	84.61
185.95 K, Crystal	85.45
187.77 K, Crystal	86.62
189.63 K, Crystal	87.81
191.38 K, Crystal	88.82
193.21 K, Crystal	89.85
194.95 K, Crystal	91.18
196.74 K, Crystal	92.52
198.56 K, Crystal	93.84
200.32 K, Crystal	95.12
202.04 K, Crystal	96
203.79 K, Crystal	97.45
205.5 K, Crystal	99.08
207.28 K, Crystal	100.34
208.94 K, Crystal	101.59
210.65 K, Crystal	102.87
212.31 K, Crystal	103.87
214.01 K, Crystal	105.32
215.67 K, Crystal	106.26
217.29 K, Crystal	107.56
218.95 K, Crystal	108.78
220.53 K, Crystal	109.96
222.27 K, Crystal	111.19
223.72 K, Crystal	112.09
225.46 K, Crystal	113.46
227.04 K, Crystal	114.91
228.58 K, Crystal	116.07
230.24 K, Crystal	117.61
231.74 K, Crystal	119.05
233.19 K, Crystal	120.59
234.7 K, Crystal	122.14
236.22 K, Crystal	123.06
237.68 K, Crystal	124.72
239.17 K, Crystal	126.14
240.66 K, Crystal	127.28
242.12 K, Crystal	128.82
243.56 K, Crystal	131.28
244.92 K, Crystal	131.95
246.4 K, Crystal	132.94
247.8 K, Crystal	133.95
249.31 K, Crystal	135.13
250.75 K, Crystal	136.4
252.21 K, Crystal	137.63
253.66 K, Crystal	138.64
255.1 K, Crystal	140.01
256.48 K, Crystal	141.43
257.94 K, Crystal	143.17
259.38 K, Crystal	144.54
260.76 K, Crystal	146.26
262.22 K, Crystal	147.86
263.56 K, Crystal	149.6
264.98 K, Crystal	151.29
266.44 K, Crystal	153.66
267.8 K, Crystal	155.02
269.17 K, Crystal	156.54
270.62 K, Crystal	158.31
271.99 K, Crystal	160.29
273.83 K, Crystal	162.61
276.06 K, Crystal	165.27
278.26 K, Crystal	168.2
280.47 K, Crystal	170.86
282.77 K, Crystal	174.18
285 K, Crystal	177.2
287.13 K, Crystal	180
289.24 K, Crystal	183.15
291.4 K, Crystal	185.52
293.54 K, Crystal	188.07
295.62 K, Crystal	190.23
297.76 K, Crystal	193.49
299.9 K, Crystal	196.12
302.04 K, Crystal	198.91
304.16 K, Crystal	201.6
306.28 K, Crystal	204.33
308.44 K, Crystal	208.09
310.59 K, Crystal	210.93
312.73 K, Crystal	214.84
314.77 K, Crystal	218
316.97 K, Crystal	220.39
319 K, Crystal	224.36
321.06 K, Crystal	227.34
323.12 K, Crystal	231.9
325.11 K, Crystal	237.01
327.12 K, Crystal	241.19
329.09 K, Crystal	246.67
330.99 K, Crystal	261.9
346.46 K, Liquid	275.09
348.18 K, Liquid	275.94
350 K, Liquid	277.07
351.67 K, Liquid	278.18
353.41 K, Liquid	279.59
355.08 K, Liquid	280.65
356.67 K, Liquid	281.82
360.3 K, Liquid	284.63
